Test in all cases: Antibacterial activity, agar dilution MIC
What all share (type): cell-based
In general terms: In agar dilution, organisms are placed on agar that contains the substance at set levels.

The test system of experiment [1] is Acinetobacter baumanii ATCC 17978. The following applies: Acinetobacter baumannii, ATCC17978, 20-24 hrs incubation, read-out: minimum inhibitory concentration MIC. In short, it runs like this: (§1)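 CLSI agar dilution. Overnight growth 35° C/5% CO2, MHIIA ± 5% sheep blood (S. pneumoniae). Inoculum 10^8 CFU.mL^−1 via OD600nm. Cpds 2-fold serial in DMSO, stock 20 mg/ml. MIC at 20-24 hrs, 35° C, 5% CO2.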

The test system of experiment [2] is Acinetobacter baumannii ATCC-BAA-1605. The following applies: ATCCBAA1605, 20-24 hrs incubation, read-out: minimum inhibitory concentration MIC. In short, it runs like this:
as §1

In experiment [3] the test system is Enterococcus faecalis ATCC 29212. The following applies: ATCC29212, 20-24 hrs incubation, read-out: minimum inhibitory concentration MIC. In short, it runs like this:
as §1

For experiment [4], the system named is Haemophilus influenzae ATCC 49247. The conditions noted are these: ATCC49247, 20-24 hrs incubation, read-out: minimum inhibitory concentration MIC. The method, boiled down:
as §1

Experiment [5] concerns Moraxella catarrhalis ATCC 43617. The following applies: ATCC43617, 20-24 hrs incubation, read-out: minimum inhibitory concentration MIC. In short, it runs like this: as §1
The subject of experiment [6] is Staphylococcus aureus ATCC 29213. The following applies: ATCC29213, 20-24 hrs incubation, read-out: minimum inhibitory concentration MIC. The method, boiled down:
as §1

In experiment [7] the test system is Staphylococcus aureus NRS 384. The conditions noted are these: NRS384, 20-24 hrs incubation, read-out: minimum inhibitory concentration MIC. In short, it runs like this:
as §1

In experiment [8] the test system is Streptococcus pneumoniae ATCC 49619. The conditions noted are these: ATCC49619, 20-24 hrs incubation, read-out: minimum inhibitory concentration MIC. The method, boiled down: as §1
The subject of experiment [9] is Streptococcus pneumoniae ATCC 6301. The conditions noted are these: ATCC6301, 20-24 hrs incubation, read-out: minimum inhibitory concentration MIC. The method, boiled down: as §1

Converted amounts (≈) assume the structure as drawn.

As to `CC[C@H]1OC(=O)[C@H](C)[C@@H](O[C@H]2C[C@@](C)(OC)[C@@H](O)[C@H](C)O2)[C@H](C)[C@@H](O[C@@H]2O[C@H](C)C[C@H](N(C)C)[C@H]2O)[C@](C)(O)C[C@@H](C)C(=O)[C@H](C)[C@@H](O)[C@]1(C)O` [Erythromycin, reference compound], the MIC in [1] came to 64 µg/mL (≈ 87.2 µM); in experiment [2] it was 16 µg/mL (≈ 21.8 µM); in experiment [3], 1 µg/mL (≈ 1.36 µM); in experiment [4], 16 µg/mL (≈ 21.8 µM); in [5], 2 µg/mL (≈ 2.73 µM); in experiment [6], 0.5 µg/mL (≈ 0.681 µM). The figures for the MIC in experiment [7], in [8] and in experiment [9] were 64 µg/mL (≈ 87.2 µM), < 0.125 µg/mL and < 0.125 µg/mL, respectively.
